System: PC-12
Assay: Neuroprotective activity against amyloid beta (25 to 35)-induced toxicity in rat PC12 cells assessed as cell viability preincubated for 48 hrs with amyloid beta (25 to 35) followed by addition to cell culture measured after 24 hrs by MTT assay
Type: functional, cell-based

SMILES: Oc1ccc([C@@H]2c3c(O)cc(O)cc3[C@H]3c4c(cc(O)cc4[C@@H]2[C@@H](c2ccc(O)cc2)[C@@H]2c4cc(O)cc5c4[C@H](c4cc(O)cc(O)c4[C@@H](c4ccc(O)cc4)[C@@H]2c2cc(O)cc4c2[C@H](c2cc(O)cc(O)c2)[C@@H](c2ccc(O)cc2)O4)[C@@H](c2ccc(O)cc2)O5)O[C@@H]3c2ccc(O)cc2)cc1
- Activity: Dose-dependent effect

Source: ChEMBL document CHEMBL3108712, “Viniphenol A, a complex resveratrol hexamer from Vitis vinifera stalks: structural elucidation and protective effects against amyloid-β-induced toxicity in PC12 cells” (J Nat Prod, 2014)
